Reference: patent publication US8604046B2, “Substituted piperidine spiro pyrrolidinone and piperidinone, preparation and therapeutic use thereof” (Sanofi, priority 2008, dated 2013)

Assays:
[1] = biological target: T1, rhesus H3 receptor (Macaca mulatta, UniProt Q865E1); test: Rhesus H3 [3H]-methylhistamine radioligand binding assay; parameters: species or system rhesus monkey (Macacca Mulatta); conditions: [3H]-Methylhistamine 2 nM, rhesus H3 membranes, WGA SPA beads, Cheng-Prusoff
Experimental: (§1) Rhesus H3 membranes were prepared from the Flp-In T-REx 293 Cell Line (Invitrogen) stably transfected with pcDNA5/FRT/TO (Invitrogen) containing the rhesus monkey (Macacca Mulatta) 445 amino acid H3 receptor. (Genbank #AY231164). Stably transfected cultures were amplified in tissue culture flasks by standard tissue culture methods and induced to express rhesus H3 by exposure to 500 ng/ml tetracycline (Cellgro) for 24 hours. After induction, cells were dissociated from flasks utilizing Cell Stripper (Cellgro). Cells were centrifuged (1K×g, 5 min) and pellet frozen in an ethanol-dry ice bath to disrupt cell membranes. Frozen cell pellet was re-suspended in 5 mM HEPES (pH 7.4, Invitrogen) at 10 ml/1000 cm2 of harvested cells. The cell suspension was drawn through an 18 gauge needle (2-3×) followed by a 23 gauge needle (2-3×) to further disrupt cell membranes. The cell suspension was centrifuged (40K×g, 30 min). Cell membrane pellet was re-suspended in 5 mM HEPES (pH 7.4, Invitrogen) at a final protein concentration of 10 mg/ml. Rhesus H3 membranes were stored under liquid nitrogen prior to use in [3H]-Methylhistamine and GTP S radioligand binding assays.
Rhesus H3 radioligand binding assay was performed using rhesus H3 receptor membranes (prepared as described above), [3H]-Methylhistamine (Perkin Elmer) and WGA SPA beads (wheat germ agglutinin scintillation proximity assay) beads (Amersham). The assay was performed in 96-well Opti-Plates (Packard). Each reaction contained 50 μl rhesus H3 membranes (20-30 μg total protein), 50 μl WGA SPA beads (0.1 μg) and 50 μl of 83 Ci/mmol [^3H]-Methylhistamine (final concentration 2 nM) and 50 μl of tested compound. The compounds of this invention and/or vehicle were diluted with binding buffer from 10 mM DMSO stocks. Assay plates were sealed with TopSeal (Perkin Elmer) and mixed on shaker (25° C., 1 hour). Assay plates were read on TopCount scintillation counter (Packard). Results were analyzed by Hill transformation and Ki values were determined by Cheng-Prusoff equation.

[2] = biological target: T1, rhesus H3 receptor; test: GTPγS radioligand binding assay, inhibition of rhesus H3 constitutive functional activity (inverse agonism); type: biochemical, rhesus monkey (Macacca Mulatta); parameters: concentration or dose not given beside the values; conditions: rhesus H3 cell membranes, relative to basal levels
Experimental: as §1

T1 sequence (Q865E1 1-445): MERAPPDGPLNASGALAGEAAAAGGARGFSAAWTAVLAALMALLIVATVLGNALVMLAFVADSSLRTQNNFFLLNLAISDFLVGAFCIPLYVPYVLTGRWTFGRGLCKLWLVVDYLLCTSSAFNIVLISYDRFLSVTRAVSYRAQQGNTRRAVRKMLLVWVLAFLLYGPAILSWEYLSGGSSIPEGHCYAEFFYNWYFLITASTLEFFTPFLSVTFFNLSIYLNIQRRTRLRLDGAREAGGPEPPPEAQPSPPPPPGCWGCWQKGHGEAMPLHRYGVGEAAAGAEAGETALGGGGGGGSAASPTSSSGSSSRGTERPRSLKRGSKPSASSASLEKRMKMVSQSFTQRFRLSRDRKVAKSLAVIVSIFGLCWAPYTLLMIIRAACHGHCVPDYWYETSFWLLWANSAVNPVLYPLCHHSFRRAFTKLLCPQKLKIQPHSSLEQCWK

Structure (SMILES) | Ki [1] [µM] | Inverse Agonism: % inhibition of Basal GTPγS binding in Rhesus H3 [2] [%]
Cc1cc(N2CC[C@H](N3CCC[C@H]3C)C2)ccc1N1CCC2(CCN(C(=O)OC(C)(C)C)CC2)C1=O [Example 1, 2-[2-Methyl-4-((2R,3′S)-2-methyl-[1,3′]bipyrrolidinyl-1′-yl)-phenyl]-1-oxo-2,8-diaza-spiro[4.5]decane-8-carboxylic acid tert-butyl ester] | 0.132 | −24
Cc1cc(N2CC[C@@H](N3CCC[C@H]3C)C2)ccc1N1CCC2(CCN(C(=O)OC(C)(C)C)CC2)C1=O [Example 2, 2-[2-Methyl-4-((2R,3′R)-2-methyl-[1,3′]bipyrrolidinyl-1′-yl)-phenyl]-1-oxo-2,8-diaza-spiro[4.5]decane-8-carboxylic acid tert-butyl ester] | 0.248 | −30
Cc1cc(N2CC[C@@H](N3CCC[C@@H]3C)C2)ccc1N1CCC2(CCN(C(=O)OC(C)(C)C)CC2)C1=O [Example 3, 2-[2-Methyl-4-((2S,3′R)-2-methyl-[1,3′]bipyrrolidinyl-1′-yl)-phenyl]-1-oxo-2,8-diaza-spiro[4.5]decane-8-carboxylic acid tert-butyl ester] | 0.007 | −23
Cc1cc(N2CC[C@H](N3CCC[C@@H]3C)C2)ccc1N1CCC2(CCN(C(=O)OC(C)(C)C)CC2)C1=O [Example 4, 2-[2-Methyl-4-((2S,3′S)-2-methyl-[1,3′]bipyrrolidinyl-1′-yl)-phenyl]-1-oxo-2,8-diaza-spiro[4.5]decane-8-carboxylic acid tert-butyl ester] | 0.043 | −31
Cc1cc(N2CCC(N3CCCC3C)C2)ccc1N1CCC2(CCN(C(=O)OC(C)(C)C)CC2)C1=O (centres unmarked) [Example 5, 2-[2-Methyl-4-(2-methyl-[1,3′]bipyrrolidinyl-1′-yl)-phenyl]-1-oxo-2,8-diaza-spiro[4.5]decane-8-carboxylic acid tert-butyl ester] | 0.018 | −13
Cc1cc(N2CC[C@H](N3CCC[C@@H]3C)C2)ccc1N1CCC2(CCNCC2)C1=O [Example 6, 2-[2-Methyl-4-((2S,3′S)-2-methyl-[1,3′]bipyrrolidinyl-1′-yl)-phenyl]-2,8-diaza-spiro[4.5]decan-1-one] | 0.011 | −22
Cc1cc(N2CC[C@@H](N3CCC[C@H]3C)C2)ccc1N1CCC2(CCNCC2)C1=O.Cl [Example 7, 2-[2-Methyl-4-((2R,3′R)-2-methyl-[1,3′]bipyrrolidinyl-1′-yl)-phenyl]-2,8-diaza-spiro[4.5]decan-1-one Hydrochloride] | 0.015 | −22
Cc1cc(N2CC[C@H](N3CCC[C@H]3C)C2)ccc1N1CCC2(CCNCC2)C1=O.Cl [Example 8, 2-[2-Methyl-4-((2R,3′S)-2-methyl-[1,3′]bipyrrolidinyl-1′-yl)-phenyl]-2,8-diaza-spiro[4.5]decan-1-one Hydrochloride] | 0.0008 | −26
Cc1cc(N2CC[C@@H](N3CCC[C@@H]3C)C2)ccc1N1CCC2(CCNCC2)C1=O.Cl [Example 9, 2-[2-Methyl-4-((2S,3′R)-2-methyl-[1,3′]bipyrrolidinyl-1′-yl)-phenyl]-2,8-diaza-spiro[4.5]decan-1-one Hydrochloride] | 0.0006 | −35
Cc1cc(N2CC[C@H](N3CCC[C@H]3C)C2)ccc1N1CCC2(CCN(CC3CCCC3)CC2)C1=O [Example 10, 8-Cyclopentyl methyl-2-[2-methyl-4-((2R,3′S)-2-methyl-[1,3′]bipyrrolidinyl-1′-l)-phenyl]-2,8-diaza-spiro[4.5]decan-1-one] | 0.012 | −26
Cc1cc(N2CC[C@@H](N3CCC[C@H]3C)C2)ccc1N1CCC2(CCN(CC3CCCC3)CC2)C1=O [Example 11, 8-Cyclopentylmethyl-2-[2-methyl-4-((2R,3′R)-2-methyl-[1,3′]bipyrrolidinyl-1′-l)-phenyl]-2,8-diaza-spiro[4.5]decan-1-one] | 0.022 | −29
Cc1cc(N2CC[C@@H](N3CCC[C@@H]3C)C2)ccc1N1CCC2(CCN(CC3CCCC3)CC2)C1=O [Example 12, 8-Cyclopentylmethyl-2-[2-methyl-4-((2S,3′R)-2-methyl-[1,3′]bipyrrolidinyl-1′-l)-phenyl]-2,8-diaza-spiro[4.5]decan-1-one] | 0.0008 | −20
Cc1cc(N2CC[C@H](N3CCC[C@@H]3C)C2)ccc1N1CCC2(CCN(CC3CCCC3)CC2)C1=O [Example 13, 8-Cyclopentylmethyl-2-[2-methyl-4-((2S,3′S)-2-methyl-[1,3′]bipyrrolidinyl-1′-l)-phenyl]-2,8-diaza-spiro[4.5]decan-1-one] | 0.0008 | −37
Cc1cc(N2CCC(N3CCCC3C)C2)ccc1N1CCC2(CCN(CC3CCCC3)CC2)C1=O (centres unmarked) [Example 14, 8-Cyclopentylmethyl-2-[2-methyl-4-(2-methyl-[1,3′]bipyrrolidinyl-1′-l)-phenyl]-2,8-diaza-spiro[4.5]decan-1-one] | 0.0056 | −31
Cc1cc(N2CC[C@H](N3CCC[C@H]3C)C2)ccc1N1CCC2(CCN(C(=O)c3ccc(OC(F)(F)F)cc3)CC2)C1=O [Example 15, 2-[2-Methyl-4-((2R,3′S)-2-methyl-[1,3′]bipyrrolidinyl-1′-yl)-phenyl]-8-(4-trifluoromethoxy-benzoyl)-2,8-diaza-spiro[4.5]decan-1-one] | 0.118 | −14
Cc1cc(N2CC[C@@H](N3CCC[C@H]3C)C2)ccc1N1CCC2(CCN(C(=O)c3ccc(OC(F)(F)F)cc3)CC2)C1=O [Example 16, 2-[2-Methyl-4-((2R,3′R)-2-methyl-[1,3′]bipyrrolidinyl-1′-yl)-phenyl]-8-(4-trifluoromethoxy-benzoyl)-2,8-diaza-spiro[4.5]decan-1-one] | 0.1 | −13
Cc1cc(N2CC[C@@H](N3CCC[C@@H]3C)C2)ccc1N1CCC2(CCN(C(=O)c3ccc(OC(F)(F)F)cc3)CC2)C1=O [Example 17, 2-[2-Methyl-4-((2S,3′R)-2-methyl-[1,3′]bipyrrolidinyl-1′-yl)-phenyl]-8-(4-trifluoromethoxy-benzoyl)-2,8-diaza-spiro[4.5]decan-1-one] | 0.0014 | −9
C[C@H]1CCCN1C1CCN(c2ccc(N3CCC4(CCN(C(=O)OC(C)(C)C)CC4)C3=O)c(F)c2)CC1 [Example 40, 2-{4-[4-(2S-2-Methyl-pyrrolidin-1-yl)-piperidin-1-yl]-2-fluoro-phenyl}-1-oxo-2,8-diaza-spiro[4.5]decane-8-carboxylic acid tert-butyl ester] |  | −21
